Source: article PMC8752738, “A propolis-derived small molecule ameliorates metabolic syndrome in obese mice by targeting the CREB/CRTC2 transcriptional complex” (Nature Communications, 2022)
Values joined by “and” are separate entries in the source; they are usually repeats but may differ in a detail not shown here. Equal values may be shown once.

How the values were obtained:
[1] = Glucose, insulin, and pyruvate tolerance tests; format: in vivo, mouse; design: AUC of IGTT, Total Area / AUC analysis of ITT, Total Area / AUC of ITT, group mean / AUC of PTT, group mean / IGTT, Mean Diff. APC - VEH / IGTT, group mean (Mean 1, APC): unit not given beside the values
Method: After overnight fasting, mice were i.p. injected or treated orally with D-glucose (1–2 g/kg) for glucose-tolerance tests (IGTT or OGTT) or injecting with sodium pyruvate (1–2 g/kg) for pyruvate tolerance tests (PTT). Insulin-tolerance tests (ITT) were performed by i.p. injection of insulin (1 U/kg) 2-h after food removal. […]

[2] = system: mouse Per2 promoter; experiment: Per2-Luc reporter (CREB/CRTC2-mediated transcription of PER2); format: cell-based; details: preliminary research
Method: SREBP1 (m-SREBP1) and fat acid synthase (FASN) in glucagon- insulin treated cells, […]
mTORC1 activity at the same time. mTORC1 h as been reported to enh ance SREBP1c mediated lipogenesis m ainly by increasing the mat uration of SREBP1c prot eins (2015, The CREB coactivator CRTC2 controls hepatic lipid metabolism by regulating S REBP1, Nature, […]
Aug 13;524(7564):243- 6.). […]
hyperactivation caused by liver specific TSC1 deletion is insufficient to induce SREBP1c activation and de novo lipogenesis in the liver of high fat diet fed mice (Akt stimulates hepatic SREBP1c and lipogenesis through parallel mTORC1- dependent and independent pathways. Cell Metabolism . 2011. 14.1: 21- 32). Considered the requirement of TSC1 for PER2 to inhibit mTORC1 activity, the reduction of PER2 by APC may not be sufficient to induce SREBP1c activati on. Moreover, ou r dat a su ggest that APC redu ces the trans cription of SREBP1c in vivo (Figures 5b and 5g) , which would result in the decrease of whole SREBP1c protein levels and overcom e the effect on lipogenesis caused by APC activation of mTORC1. […]
Data are repres ented as mean ± SEM (n=4). *, p < 0.05; **, p< 0.01. pval ues wer e determined by one-way ANOVA followed Dunnett’s multiple comparisons test (Left).
The over-expr essed proteins FLAG- CREB and HA-CRTC2-171A were detected in the lysates of the luciferase reporter assay by immunoblotting (Right). […]

[3] = db/db mice, ip APC, ITT 0-120 min
[4] = db/db mice, ip APC, 15 min, n=6
[5] = db/db mice, ip APC, 30 min, n=6
[6] = db/db mice, ip APC, 60 min, n=6
[7] = db/db mice, ip APC, 120 min, n=6
[8] = db/db mice, ip APC, PTT 0-120 min

Q: With `CC(C)=CCc1cc(C=CC(=O)O)cc(CC=C(C)C)c1O` [APC, 3,5-diprenyl-4-hydroxycinnamic acid] as the molecule, how does the “IGTT, Mean Diff. APC - VEH” value ([1]; db/db mice, 60 min) read?
A: -166.5

Q: And the “IGTT, group mean (Mean 1, APC)” value ([1]; db/db mice, 60 min, n=8)?
A: 217.8

Q: What about the “IGTT, Mean Diff. APC - VEH” value ([1]; db/db mice, 120 min) of the same molecule?
A: -105

Q: And the “IGTT, group mean (Mean 1, APC)” value ([1]; db/db mice, 120 min, n=8)?
A: 171

Q: And the “AUC of ITT (Total Area), individual mice” value ([1]; db/db mice, ip APC)?
A: 528.6 and 524.4 and 533.7 and 561.3 and 514.8 and 472.5

Q: And the “AUC of ITT in db, difference between means (APC - VEH) ± SEM” value ([1]; db/db mice, ip APC)?
A: -215.2 ± 51.46

Q: What about the “AUC of PTT, individual mice” value ([1]; db/db mice, ip APC) of the same molecule?
A: 534.6 and 662.4 and 481.5 and 659.7 and 691.6 and 494.5

Q: What about the IGTT blood glucose ([1]; db/db mice, ip APC, 0 mins, individual mouse, n=8) of the same molecule?
A: 153 mg/dL and 144 mg/dL and 142.2 mg/dL and 138.6 mg/dL and 176.4 mg/dL and 127.8 mg/dL and 140.4 mg/dL and 113.4 mg/dL

Q: And the IGTT blood glucose ([1]; db/db mice, ip APC, 15 mins, individual mouse, n=8)?
A: 477 mg/dL and 363.6 mg/dL and 334.8 mg/dL and 511.2 mg/dL and 419.4 mg/dL and 423 mg/dL and 480.6 mg/dL and 525.6 mg/dL

Q: And the IGTT blood glucose ([1]; db/db mice, ip APC, 30 mins, individual mouse, n=8)?
A: 262.8 mg/dL and 450 mg/dL and 293.4 mg/dL and 275.4 mg/dL and 228.4 mg/dL and 228.6 mg/dL and 124.2 mg/dL and 385.2 mg/dL

Q: And the IGTT blood glucose ([1]; db/db mice, ip APC, 60 mins, individual mouse, n=8)?
A: 205.2 mg/dL and 233.8 mg/dL and 221.4 mg/dL and 237.6 mg/dL and 329.4 mg/dL and 163.8 mg/dL and 135 mg/dL and 216 mg/dL

Q: What about the IGTT blood glucose ([1]; db/db mice, ip APC, 120 mins, individual mouse, n=8) of the same molecule?
A: 176.4 mg/dL and 270 mg/dL and 153 mg/dL and 138.6 mg/dL and 250.2 mg/dL and 133.2 mg/dL and 99 mg/dL and 147.6 mg/dL

Q: And the “ITT blood glucose, difference between column means (CT vs APC)” value [1, 3]?
A: 51.32

Q: And the “ITT blood glucose, mean over all time points (Mean of APC)” value [1, 3]?
A: 134.7

Q: And the “ITT blood glucose, Mean Diff. APC - CT” value ([1]; db/db mice, ip APC, 0 min)?
A: -52.47

Q: What about the “ITT blood glucose, individual mice” value ([1]; db/db mice, ip APC, 0 min) of the same molecule?
A: 178.2 mg/dL and 172.8 mg/dL and 156.6 mg/dL and 194.4 mg/dL and 190.4 mg/dL and 192.6 mg/dL

Q: And the “ITT blood glucose, group mean (Mean 1, APC)” value (from here on “ITT blood glucose, group mean”) ([1]; db/db mice, ip APC, 0 min, n=6)?
A: 180.8

Q: And the “ITT blood glucose, Mean Diff. APC - CT” value ([1]; db/db mice, ip APC, 15 min)?
A: -63.57

Q: What about the “ITT blood glucose, individual mice” value ([1]; db/db mice, ip APC, 15 min) of the same molecule?
A: 137.6 mg/dL and 129.6 mg/dL and 153 mg/dL and 133 mg/dL and 138.3 mg/dL and 126 mg/dL

Q: What about the “ITT blood glucose, group mean” value [1, 4] of the same molecule?
A: 136.3

Q: And the “ITT blood glucose, Mean Diff. APC - CT” value ([1]; db/db mice, ip APC, 30 min)?
A: -56.08

Q: What about the “ITT blood glucose, individual mice” value ([1]; db/db mice, ip APC, 30 min) of the same molecule?
A: 101.2 mg/dL and 129.6 mg/dL and 115.2 mg/dL and 124.2 mg/dL and 128.4 mg/dL and 111.6 mg/dL

Q: And the “ITT blood glucose, group mean” value [1, 5]?
A: 118.4

Q: What about the “ITT blood glucose, Mean Diff. APC - CT” value ([1]; db/db mice, ip APC, 60 min) of the same molecule?
A: -54.15

Q: And the “ITT blood glucose, individual mice” value ([1]; db/db mice, ip APC, 60 min)?
A: 120.6 mg/dL and 115 mg/dL and 129.6 mg/dL and 138.6 mg/dL and 105.2 mg/dL and 91.8 mg/dL

Q: And the “ITT blood glucose, group mean” value [1, 6]?
A: 116.8

Q: What about the “ITT blood glucose, Mean Diff. APC - CT” value ([1]; db/db mice, ip APC, 120 min) of the same molecule?
A: -30.35

Q: And the “ITT blood glucose, individual mice” value ([1]; db/db mice, ip APC, 120 min)?
A: 160.2 mg/dL and 127.6 mg/dL and 115.2 mg/dL and 136.6 mg/dL and 95.3 mg/dL and 93.6 mg/dL

Q: What about the “ITT blood glucose, group mean” value [1, 7] of the same molecule?
A: 121.4

Q: What about the “PTT blood glucose, difference between column means (VEH vs APC)” value [1, 8] of the same molecule?
A: 95.48

Q: What about the “PTT blood glucose, mean over all time points (Mean of APC)” value [1, 8] of the same molecule?
A: 143.6

Q: What about the “PTT blood glucose, Mean Diff. APC - VEH” value ([1]; db/db mice, ip APC, 0 min) of the same molecule?
A: -59.27

Q: What about the “PTT blood glucose, individual mice” value ([1]; db/db mice, ip APC, 0 min) of the same molecule?
A: 156.6 mg/dL and 129.6 mg/dL and 131.4 mg/dL and 153 mg/dL and 147.6 mg/dL and 135.8 mg/dL

Q: And the “PTT blood glucose, group mean (Mean 1, APC)” value (“PTT blood glucose, group mean” below) ([1]; db/db mice, ip APC, 0 min, n=6)?
A: 142.3

Q: What about the “PTT blood glucose, Mean Diff. APC - VEH” value ([1]; db/db mice, ip APC, 15 min) of the same molecule?
A: -65.02

Q: What about the “PTT blood glucose, individual mice” value ([1]; db/db mice, ip APC, 15 min) of the same molecule?
A: 142.2 mg/dL and 181.8 mg/dL and 156.6 mg/dL and 169.2 mg/dL and 180.5 mg/dL and 149.4 mg/dL

Q: What about the “PTT blood glucose, group mean” value [1, 4] of the same molecule?
A: 163.3

Q: What about the “PTT blood glucose, Mean Diff. APC - VEH” value ([1]; db/db mice, ip APC, 30 min) of the same molecule?
A: -106.5

Q: And the “PTT blood glucose, individual mice” value ([1]; db/db mice, ip APC, 30 min)?
A: 135 mg/dL and 194.4 mg/dL and 126 mg/dL and 172.8 mg/dL and 163.7 mg/dL and 142.2 mg/dL

Q: What about the “PTT blood glucose, group mean” value [1, 5] of the same molecule?
A: 155.7

Q: What about the “PTT blood glucose, Mean Diff. APC - VEH” value ([1]; db/db mice, ip APC, 60 min) of the same molecule?
A: -119.1

Q: And the “PTT blood glucose, individual mice” value ([1]; db/db mice, ip APC, 60 min)?
A: 124.2 mg/dL and 140.4 mg/dL and 99 mg/dL and 169.2 mg/dL and 201.6 mg/dL and 93.6 mg/dL

Q: What about the “PTT blood glucose, group mean” value [1, 6] of the same molecule?
A: 138

Q: What about the “PTT blood glucose, Mean Diff. APC - VEH” value ([1]; db/db mice, ip APC, 120 min) of the same molecule?
A: -127.5

Q: And the “PTT blood glucose, individual mice” value ([1]; db/db mice, ip APC, 120 min)?
A: 109.8 mg/dl and 162 mg/dl and 68.4 mg/dl and 144 mg/dl (2×) and 82.8 mg/dl

Q: What about the “PTT blood glucose, group mean” value [1, 7] of the same molecule?
A: 118.5

Q: And the “IGTT AUC, Total Area” value ([1]; db/db mice, ip APC, individual mouse, n=8)?
A: 1110 and 1254 and 997.2 and 1163 and 1191 and 945.9 and 859.5 and 1257

Q: What about the “AUC of ITT in db, group mean” value ([1]; db/db mice, ip APC, n=6) of the same molecule?
A: 522.6

Q: What about the “AUC in PTT, mean of differences (APC - VEH)” value ([1]; db/db mice, ip APC, paired t test, 6 pairs) of the same molecule?
A: -383.9

Q: And the “AUC of IGTT in db/db, group mean” value ([1]; db/db mice, n=8)?
A: 1097

Q: And the “AUC of ITT, group mean” value ([1]; mean of APC group, n=7)?
A: 367.6

Q: And the “CREB/CRTC2-mediated transcription of PER2” value [2]?
A: reduced
